Data on eleven compounds can be found in patent US20110275703A1, “SUBSTITUTED SPIROKETAL DERIVATIVES AND USE THEREOF AS THERAPEUTIC DRUG FOR DIABETES” (CHUGAI SEIYAKU KABUSHIKI KAISHA, priority 2007, published 2011).

Each structure is given as a SMILES string. Read-outs that look alike come from different tables or passages of the source.

One assay has as its system db/db mice. Nature of the assay: Study for glucose lowering effect in db/db mouse. It counts as in vivo. As to conditions: for inhibition in vivo at 0.3 mg/kg: Mus musculus; for Percent reduction of blood glucose (%) 6 hours after administration / inhibition in vivo at 0.3 mg/kg: 6 hours. On the procedure: Study for Glucose Lowering Effect in dB/dB Mouse
A study for glucose lowering effect was conducted using db/db mice (purchased from Clea Japan, Inc., male, 9 to 11 weeks old), type 2 diabetic model mice. On the day of the study, body weights and blood glucose levels were measured prior to the start of testing. Measurement of the blood glucose levels was performed using a simple blood glucose meter (manufactured by Bayer HealthCare, Dexter-Z II). The mice were allocated to some groups consisting of 5 mice each so that homogeneity of body weights or blood glucose levels among groups would be ensured. Blood collection was carried out by making an incision on the tip of the tail and taking the blood therefrom. On the day of the study, the test compounds were suspended in 0.5% carboxymethylcellulose solution (CMC solution), and the dosing solutions of which concentration was adjusted to either 0.3 mg/10 mL or 3 mg/10 mL were prepared. The dosing solutions were orally administered by gavage for mice in 10 mL/kg. To the control group, only a 0.5% CMC solution was orally administered in 10 mL/kg. Blood was collected prior to or sequentially after administration of test compounds by above method. The blood glucose levels were determined using a hexokinase method (AutoSera S GLU, manufactured by Daiichi Pure Chemicals Co., Ltd.). A percent reduction of blood glucose relative to control group at each time point after administration of test compounds was calculated by the following equation.
Percent reduction of blood glucose (%)={blood glucose level in the control group (mg/dL)-blood glucose level in the test compound group (mg/dL)}/blood glucose level in the control group (mg/dL)×100

A further assay has as its target T1, human SGLT2 (Homo sapiens, UniProt P31639).
T1 construct: expressed in transfected cells; host or cells: CHO-K1
T1 sequence (P31639 1-672): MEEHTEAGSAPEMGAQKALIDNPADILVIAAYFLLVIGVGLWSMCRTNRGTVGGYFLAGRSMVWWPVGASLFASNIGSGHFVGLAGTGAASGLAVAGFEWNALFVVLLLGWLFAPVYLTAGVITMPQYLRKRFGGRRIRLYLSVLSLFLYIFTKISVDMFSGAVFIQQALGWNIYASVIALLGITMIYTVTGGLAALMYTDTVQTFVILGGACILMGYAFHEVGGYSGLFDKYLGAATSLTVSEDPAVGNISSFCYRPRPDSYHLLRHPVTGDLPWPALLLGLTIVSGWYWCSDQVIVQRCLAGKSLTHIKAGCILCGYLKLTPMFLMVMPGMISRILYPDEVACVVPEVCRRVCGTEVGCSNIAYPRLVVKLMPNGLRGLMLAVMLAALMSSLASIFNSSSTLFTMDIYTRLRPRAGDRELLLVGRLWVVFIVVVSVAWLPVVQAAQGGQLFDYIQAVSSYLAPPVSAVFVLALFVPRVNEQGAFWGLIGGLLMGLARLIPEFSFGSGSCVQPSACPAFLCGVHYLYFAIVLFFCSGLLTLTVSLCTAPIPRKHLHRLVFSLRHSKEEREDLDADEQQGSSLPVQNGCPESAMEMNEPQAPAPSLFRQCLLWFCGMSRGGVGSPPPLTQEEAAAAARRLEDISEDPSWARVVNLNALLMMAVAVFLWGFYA
Nature of the assay: Inhibitory activity against methyl-α-D-glucopyranoside uptake, CHO cells stably expressing human SGLT2. The settings on record: inhibition of SGLT2, Table 2-1; read-out: IC50 value. The class given is cell-based. From the text: Evaluation of inhibitory activity against methyl-α-D-glucopyranoside uptake of human Na^+-glucose cotransporter (SGLT1 and SGLT2)
2) Construction of Human SGLT2 Expression Vector
Human SGLT2 cDNA was amplified by PCR with a cDNA library derived from human kidney (Clontech) as a template, synthetic DNA primers and KOD+ DNA Polymerase. The amplified cDNA was inserted into pcRII-Topo vector by using a Topo TA Cloning Dual Promoter kit. E. coli competent cells (TPO10) were transformed with the plasmid vector, cultured in LB medium containing ampicillin (50 mg/L) to grow ampicillin-resistant clones. The plasmid vector containing human SGLT2 cDNA was purified from the clone in a standard manner. Human SGLT2 cDNA added restriction enzyme recognition sites (Xho I at 5′-end, Hind III at 3′-end) was amplified by PCR with the plasmid vector as a template, synthetic DNA primers containing an additional restriction enzyme recognition site and KOD+ DNA Polymerase. This amplified cDNA was digested with Xho I and Hind III, and ligated into expression vector pcDNA3.1(−) digested with Xho I and Hind III by using a Rapid DNA Ligation kit. E. coli competent cells (DH5α) were transformed with the ligated expression vector and grown in ampicillin-containing LB medium. Human SGLT2 expression vector was purified from the ampicillin-resistant clone in a standard manner.
3) Establishment of Cell Lines Stably Expressing Human SGLT1 or Human SGLT2
The human SGLT1 expression vector or the human SGLT2 expression vector was digested with the restriction enzyme Pvu I and transfected into CHO-Kl cells with FuGENE (Roche Diagonostics). After the transfection, the cells were cultured at 37° C. in the presence of 5% CO2 for about 3 weeks in DMEM medium (Gibco) containing penicillin (50 U/mL, SIGMA), streptomycin (50 mg/L, SIGMA), geneticin (200 mg/L, Nacalai Tesque, Inc., Japan) and 20% fetal bovine serum to obtain geneticin-resistant clones. Among these clones, clones stably expressing human SGLT1 or human SGLT2 were selected by the evaluating the sodium-dependent uptake activity of sugar (methyl-α-D-glucopyranoside).
4) Evaluation of Inhibitory Activity Against methyl-α-D-glucopyranoside uptake
Cell lines stably expressing human SGLT1 or human SGLT2 CHO were seeded in 96-well culture plates at a density of 30000 to 40000 cells/well and cultured for 4 to 6 days. The medium in these plates was removed and replaced by 150 μL/well pretreatment buffer (i.e., a buffer containing 140 mM choline chloride, 2 mM potassium chloride, 1 mM calcium chloride, 1 mM magnesium chloride, 10 mM 2-[4-(2-hydroxyethyl)-1-piperazinyl]ethanesulfonic acid and tris(hydroxymethyl)aminomethane, pH 7.4), and the plates were incubated at 37° C. for 20 minutes. The pretreatment buffer in the plates was removed, replaced by 50 μL/well fresh pretreatment buffer, and the plates were incubated at 37° C. for 20 minutes. Methyl-α-D-(U—^14C)glucopyranoside (6.3 mL, Amersham Pharmacia Biotech, 200 mCi/L) was added to and mixed with 100 mL buffer (i.e., a buffer containing 140 mM sodium chloride, 2 mM potassium chloride, 1 mM calcium chloride, 1 mM magnesium chloride, 1 mM methyl-α-D-glucopyranoside, 10 mM [4-(2-hydroxyethyl)-1-piperazinyl]ethanesulfonic acid and tris(hydroxymethyl)aminomethane, pH 7.4), which was used as uptake buffer. Test compounds were dissolved into uptake buffer and these test compound solutions were used for evaluating inhibitory activity. Uptake buffer without a test compound was used as a control solution. Moreover, for use in measuring baseline uptake in the absence of sodium, sodium-free solution was prepared in the same manner to contain 140 mM choline chloride instead of sodium chloride. The pretreatment buffer was removed from each well of the plates and replaced by 35 μL/well test compound solutions, control solution or sodium-free solution, and the plates were incubated at 37° C. for 45 minutes. […]

[1] abbreviates: oral, 0.3 mg/kg, relative to control group, Table 3-2.
Setting [2] is: oral, 3.0 mg/kg, relative to control group, Table 3-2.
Setting [3] is: po, 0.3 mg/kg administration, read-out: reduction of blood glucose 6 hours after administration.
The mark [4] stands for this setting: oral, 0.3 mg/kg, relative to control group, Table 3-1, read-out: Percent reduction of blood glucose (%) 6 hours after administration.

Turning to `CC(C)c1ccc(Cc2ccc3c(c2)C2(OC3)OC(CO)C(O)C(O)C2O)cc1` (stereo not drawn) [Comparative Compound 2, 1,1-anhydro-1-C-[5-(4-isopropylphenyl)methyl-2-(hydroxymethyl)phenyl]-β-glucopyranose, reference compound], the “Percent reduction of blood glucose (%) 6 hours after administration” value with db/db mice (oral, 0.3 mg/kg, relative to control group, Table 3-1) came to 16%; in the assay with db/db mice (setting [1]), 16%; with db/db mice (setting [2]), 53%. Moreover, the “Percent reduction of blood glucose (%) 24 hours after administration” value in the assay on db/db mice (setting [1]) was determined as 4.9%; in the assay on db/db mice (setting [2]), 13%.
On to `Cc1ccc(Cc2cc3c(cc2Cl)CO[C@]32O[C@H](CO)[C@@H](O)[C@H](O)[C@H]2O)cc1` [Example 2, (1S,3′R,4′S,5′S,6′R)-5-chloro-3′,4′,5′,6′-tetrahydro-6′-(hydroxymethyl)-6-[(4-methylphenyl)methyl]-spiro[isobenzofuran-1(3H),2′-[2H]pyran]-3′,4′,5′-triol], for which the IC50 at human SGLT2 is 1.2 nM.
For the compound `CSc1ccc(Cc2cc3c(cc2Cl)CO[C@]32O[C@H](CO)[C@@H](O)[C@H](O)[C@H]2O)cc1` [Example 3, (1S,3′R,4′S,5′S,6′R)-5-chloro-3′,4′,5′,6′-tetrahydro-6′-(hydroxymethyl)-6-[(4-(methylthio)phenyl)methyl]-spiro[isobenzofuran-1(3H),2′-[2H]pyran]-3′,4′,5′-triol], the IC50 on human SGLT2 was 1.3 nM.
On the same count and under the same terms, the result for `COc1ccc(Cc2cc3c(cc2Cl)CO[C@]32O[C@H](CO)[C@@H](O)[C@H](O)[C@H]2O)cc1` [Example 4, (1S,3′R,4′S,5′S,6′R)-5-chloro-3′,4′,5′,6′-tetrahydro-6′-(hydroxymethyl)-6-[(4-methoxyphenyl)methyl]-spiro[isobenzofuran-1(3H),2′-[2H]pyran]-3′,4′,5′-triol] reads 1 nM.
In the case of `OC[C@H]1O[C@]2(OCc3cc(Cl)c(Cc4ccc(Cl)cc4)cc32)[C@H](O)[C@@H](O)[C@@H]1O` [Example 6, (1S,3′R,4′S,5′S,6′R)-5-chloro-6-[(4-chlorophenyl)methyl]-3′,4′,5′,6′-tetrahydro-6′-(hydroxymethyl)-spiro[isobenzofuran-1(3H),2′-[2H]pyran]-3′,4′,5′-triol], the IC50 at human SGLT2 turned out to be 1.3 nM. Also, the inhibition in vivo at 0.3 mg/kg in the assay on db/db mice (setting [3]) is at least 25%.
With `OC[C@H]1O[C@]2(OCc3cc(Cl)c(Cc4ccc(CC(F)F)cc4)cc32)[C@H](O)[C@@H](O)[C@@H]1O` [Example 10, (1S,3′R,4′S,5′S,6′R)-5-chloro-6-[(4-(2,2-difluoroethyl)phenyl)methyl]-3′,4′,5′,6′-tetrahydro-6′-(hydroxymethyl)-spiro[isobenzofuran-1(3H),2′-[2H]pyran]-3′,4′,5′-triol], the IC50 at human SGLT2 came to 1.2 nM. Also, the inhibition in vivo at 0.3 mg/kg in the assay on db/db mice (setting [3]) is at least 25%.
Take `OC[C@H]1O[C@]2(OCc3cc(Cl)c(Cc4ccc(OC(F)(F)F)cc4)cc32)[C@H](O)[C@@H](O)[C@@H]1O` [Example 11, (1S,3′R,4′S,5′S,6′R)-5-chloro-6-[(4-trifluoromethoxyphenyl)methyl]-3′,4′,5′,6′-tetrahydro-6′-(hydroxymethyl)-spiro[isobenzofuran-1(3H),2′-[2H]pyran]-3′,4′,5′-triol]: the IC50 on human SGLT2 came to 1.9 nM. In addition, in the assay with db/db mice (setting [4]), the inhibition in vivo at 0.3 mg/kg was 45%.
Consider `CC(=O)c1ccc(Cc2cc3c(cc2Cl)CO[C@]32O[C@H](CO)[C@@H](O)[C@H](O)[C@H]2O)cc1` [Example 12, (1S,3′R,4′S,5′S,6′R)-6-[(4-acetylphenyl)methyl]-5-chloro-3′,4′,5′,6′-tetrahydro-6′-(hydroxymethyl)-spiro[isobenzofuran-1(3H),2′-[2H]pyran]-3′,4′,5′-triol], for which the IC50 on human SGLT2 came to 1.5 nM. In addition, the inhibition in vivo at 0.3 mg/kg in the assay on db/db mice (setting [4]) turned out to be 27%.
On to `OC[C@H]1O[C@]2(OCc3cc(Cl)c(Cc4ccc(C(F)(F)F)cc4)cc32)[C@H](O)[C@@H](O)[C@@H]1O` [Example 13, (1S,3′R,4′S,5′S,6′R)-5-chloro-6-[(4-trifluoromethylphenyl)methyl]-3′,4′,5′,6′-tetrahydro-6′-(hydroxymethyl)-spiro[isobenzofuran-1(3H),2′-[2H]pyran]-3′,4′,5′-triol], for which, at human SGLT2, the IC50 stood at 1.7 nM. Also, in the assay with db/db mice (setting [3]), the inhibition in vivo at 0.3 mg/kg was at least 25%.
Regarding `OC[C@H]1O[C@]2(OCc3cc(Cl)c(Cc4cc5ccccc5s4)cc32)[C@H](O)[C@@H](O)[C@@H]1O` [Example 28, (1S,3′R,4′S,5′S,6′R)-6-[(benzothiophen-2-yl)methyl]-5-chloro-3′,4′,5′,6′-tetrahydro-6′-(hydroxymethyl)-spiro[isobenzofuran-1(3H),2′-[2H]pyran]-3′,4′,5′-triol], on human SGLT2, the IC50 came to 1.4 nM.
Still for that read-out and setting: the result for `CCc1ccc(Cc2cc3c(cc2Cl)CO[C@]32O[C@H](CO)[C@@H](O)[C@H](O)[C@H]2O)s1` [Example 29, (1S,3′R,4′S,5′S,6′R)-5-chloro-6-[(5-ethylthiophen-2-yl)methyl]-3′,4′,5′,6′-tetrahydro-6′-(hydroxymethyl)-spiro[isobenzofuran-1(3H),2′-[2H]pyran]-3′,4′,5′-triol] reads 1.5 nM.
